Measurements from US20240196933A1, “USE OF GOSSYPOL AND A METHANE INHIBITOR FOR REDUCING THE FORMATION OF METHANE EMANATING FROM THE DIGESTIVE ACTIVITIES OF RUMINANTS” (DSM IP ASSETS B.V., priority 2021, published 2024).

System: rumen liquor
Assay: In vitro test for methane production (modified Hohenheim Forage value Test, HFT)
Format: cell-based
Settings: TMR feed, 8 h at 39° C.
Method: In vitro test for methane production: A modified version of the “Hohenheim Forage value Test (HFT)” was used for testing the effect of specific compounds on the rumen functions mimicked by this in-vitro system.
Principle: Feed is gadded into a syringe with a composition of rumen liquor and an appropriate mixture of buffers. The solution is incubated at 39° C. After 8 hours the quantity (and composition) of gas phase produced is measured and put into a formula for conversion.
Sample weighing: The feed stuff (i.e. TMR (44% concentrate, 6% hay, 37% maize silage and 13% grass silage) is sieved to 1 mm and weighed exactly into 64 syringes. 4 of these syringes are the substrate controls, which display the gas production without the effect of the tested compounds. 4 other syringes are positive control (3-NOP, 10 μM). When needed, 4 syringes contain a carrier control (if the test compounds need a carrier). The remaining syringes contain the test substances, by groups of 4 syringes, in the amounts as indicated in table 1.
• The components are mixed in a Woulff bottle in following order: • 711 ml water • 0.18 ml trace element solution • 355.5 ml buffer solution • 355.5 ml mass element solution • The completed solution is warmed up to 39° C. followed by the addition of 1.83 ml sodium salt solution and the addition of reduction solution at 36° C. The rumen liquor is added, when the indicator turns colourless.
Extraction of the rumen liquor: 750 ml of rumen liquor are added to approximately 1,400 ml of medium solution under continued agitation and CO2-gassing.
Filling the syringes, incubation and determining gas volumes and VFA values: The diluted rumen fluid (24 ml) is added to the glass syringe. The syringes are then incubated for 8 hours at 39° C. under gentle agitation. After 8 hours, the volume of gas produced is measured, and the percentage of methane in the gas phase is determined by gas chromatography.
The food fermented was artificial TMR (44% concentrate, 6% hay, 37% maize silage and 13% grass silage). Gossypol was obtained from Sigma-Aldrich (G8761), and used at a concentration as outlined in table 1. 3-Nitrooxy-propanol (3-NOP) was used at the concentration as outlined in table 1.

| Compound | Total methane change [% vs. control] found (3-NOP 2.5 μM alone) | Total methane change [% vs. control] found (3-NOP 5 μM alone) | Total methane change [% vs. control] found (3-NOP 10 μM alone) | Total methane change [% vs. control] found (G 5 μM alone) | Total methane change [% vs. control] found (G 10 μM alone) | Total methane change [% vs. control] found (G 20 μM alone) | Total methane change [% vs. control] found (G 100 μM alone) |
| --- | --- | --- | --- | --- | --- | --- | --- |
| O=[N+]([O-])OCCCO [3-NOP, 3-Nitrooxy-propanol, reference compound] | −12 % vs. control | −54 % vs. control | −98 % vs. control | – | – | – | – |
| Cc1cc2c(C(C)C)c(O)c(O)c(C=O)c2c(O)c1-c1c(C)cc2c(C(C)C)c(O)c(O)c(C=O)c2c1O [G, Gossypol] | – | – | – | −1 % vs. control | −11 % vs. control | −15 % vs. control | −69 % vs. control |
